From paper PMC8624485, “Modeling, Synthesis, and Biological Evaluation of Potential Retinoid-X-Receptor (RXR) Selective Agonists: Analogs of 4-[1-(3,5,5,8,8-Pentamethyl-5,6,7,8-tetrahyro-2-naphthyl)ethynyl]benzoic Acid (Bexarotene) and 6-(Ethyl(4-isobutoxy-3-isopropylphenyl)amino)nicotinic Acid (NEt-4IB)” (International Journal of Molecular Sciences, 2021)

Key:
Type in all cases: cell-based
[1] = biological target: T1, RXRα (Homo sapiens, UniProt P19793); experiment: UAS/Gal4 GFP reporter assay of RXRα activation in UAS-GFP x KMT2A-MLLT3 cells; conditions: RXRα activation; value (SD); Table 1 does not say whether GFP or Luc assay; read-out: EC50 (nM) +/−(SD)
T1 construct: expressed in transfected cells; host or cells: UAS-GFP x KMT2A-MLLT3 cells (retroviral transduction)
T1 sequence (P19793 227-458 limits assumed): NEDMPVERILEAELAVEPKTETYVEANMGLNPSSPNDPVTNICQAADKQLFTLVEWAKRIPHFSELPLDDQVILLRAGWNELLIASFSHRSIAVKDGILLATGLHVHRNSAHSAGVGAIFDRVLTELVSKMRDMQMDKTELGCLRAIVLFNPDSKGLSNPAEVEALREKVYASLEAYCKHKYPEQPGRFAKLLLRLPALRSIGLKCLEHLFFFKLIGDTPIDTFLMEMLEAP
Experimental: Cells were treated, and after 48 h, GFP measured by a ZE5 Flow Cytometer (Biorad).

[2] = biological target: T2, RXRA (Homo sapiens, UniProt P19793); experiment: ApoA1-Luc luciferase assay in 293T cells with pBABE-RXRA; conditions: pBABE-RXRA and ApoA1-Luc, nonconverged, read-out: EC50 (nM), luciferase (Figure 7C)
T2 construct: expressed in transfected cells; host or cells: 293T cells
T2 sequence (P19793 1-462): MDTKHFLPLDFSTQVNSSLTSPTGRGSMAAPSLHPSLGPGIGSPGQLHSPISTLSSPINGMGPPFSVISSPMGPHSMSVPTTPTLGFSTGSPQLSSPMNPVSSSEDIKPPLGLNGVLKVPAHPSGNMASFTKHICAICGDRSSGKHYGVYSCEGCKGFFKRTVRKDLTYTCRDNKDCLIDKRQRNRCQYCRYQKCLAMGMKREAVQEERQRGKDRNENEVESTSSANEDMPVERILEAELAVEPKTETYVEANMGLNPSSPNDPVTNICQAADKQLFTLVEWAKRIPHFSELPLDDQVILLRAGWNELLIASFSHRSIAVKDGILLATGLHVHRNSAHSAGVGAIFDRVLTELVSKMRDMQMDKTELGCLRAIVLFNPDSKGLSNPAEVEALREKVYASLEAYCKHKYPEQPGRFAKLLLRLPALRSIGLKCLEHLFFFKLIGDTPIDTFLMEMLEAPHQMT
Experimental: 293T cells were transfected using Lipofectamine 2000 (Invitrogen). Six hours after transfection, the cells were collected and plated into a 48-well plate in 1% BSA media in triplicate and treated with compounds. After 40 h incubation, the cells were harvested and assayed for luciferase (Luc Assay System with Reporter Lysis Buffer, Promega) in a Beckman Coulter LD400 plate reader.

[3] = biological target: T3, RXR-LXR heterodimer (LXR/LXRE) (Homo sapiens, UniProt P19793); experiment: LXRE-luciferase transactivation assay in HEK293 cells; conditions: 100 nM compound alone, HEK293, bexarotene (1) set to 100%
T3 construct: expressed in transfected cells; host or cells: HEK293 cells
T3 sequence (P19793 1-462): T2 sequence (P19793 1-462)
T3 sequence (Q13133 1-447 partner): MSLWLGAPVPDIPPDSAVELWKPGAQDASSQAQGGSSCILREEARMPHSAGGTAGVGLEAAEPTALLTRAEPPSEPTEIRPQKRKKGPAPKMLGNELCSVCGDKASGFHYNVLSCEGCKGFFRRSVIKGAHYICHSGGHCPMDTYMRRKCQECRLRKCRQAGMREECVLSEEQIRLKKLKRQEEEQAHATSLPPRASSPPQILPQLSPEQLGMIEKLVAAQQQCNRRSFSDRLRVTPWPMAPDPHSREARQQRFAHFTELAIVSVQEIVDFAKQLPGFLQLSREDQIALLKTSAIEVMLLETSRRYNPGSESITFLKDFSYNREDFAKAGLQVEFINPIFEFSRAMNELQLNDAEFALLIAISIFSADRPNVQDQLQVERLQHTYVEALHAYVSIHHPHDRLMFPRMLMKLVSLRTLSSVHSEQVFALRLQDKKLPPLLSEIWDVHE
Experimental: The activation from this natural LXRE in our system was tested in the presence of either 100 nM RXR agonists alone or in combination with 100 nM of both the RXR agonist and LXR agonist T0901317 (TO). […] The LXRE-mediated assays were performed using human embryonic cells (HEK293) seeded at a density of 60,000 cells/well in a 24-well plate and maintained in DMEM (Hyclone) supplemented with 10% fetal bovine serum, 100 µg/mL streptomycin, 100 U/mL penicillin (Invitrogen, Carlsbad, CA, USA) at 37 degrees Celsius, 5% CO2 for 24 h. The cells were co-transfected with 250 ng of an LXRE-luciferase reporter gene, 50 ng of pSG5-human RXRα, and 20 ng of renilla control plasmid. […] After 24 h post treatment, the cells were lysed and the transcriptional activity mediated by the LXRE was measured using the Dual Luciferase Assay System (Promega, Madison, WI) in a Sirius FB12 luminometer (Berthold Detection Systems, Pforzheim, Germany) according to the manufacturer’s protocol. The data are a compilation of between three and six independent assays with each treatment group dosed in triplicate for each independent assay. […] Bars on all graphs indicate standard deviation of the replicate experiments.
Cells were transfected for 24 h utilizing a liposome-mediated transfection protocol and then treated with the ethanol vehicle, or 100 nM of the indicated compound alone or in combination with 100 nM TO901317 (TO). […] (A) Human HEK-293 cells were transfected and treated as described in Figure 8.

[4] = biological target: T4, human RARα (Homo sapiens, UniProt P10276); experiment: RARE-luciferase reporter assay in HEK293 cells; conditions: HEK293, all-trans-RA set to 100%
T4 construct: expressed in transfected cells; host or cells: HEK293 cells
T4 sequence (P10276 1-462): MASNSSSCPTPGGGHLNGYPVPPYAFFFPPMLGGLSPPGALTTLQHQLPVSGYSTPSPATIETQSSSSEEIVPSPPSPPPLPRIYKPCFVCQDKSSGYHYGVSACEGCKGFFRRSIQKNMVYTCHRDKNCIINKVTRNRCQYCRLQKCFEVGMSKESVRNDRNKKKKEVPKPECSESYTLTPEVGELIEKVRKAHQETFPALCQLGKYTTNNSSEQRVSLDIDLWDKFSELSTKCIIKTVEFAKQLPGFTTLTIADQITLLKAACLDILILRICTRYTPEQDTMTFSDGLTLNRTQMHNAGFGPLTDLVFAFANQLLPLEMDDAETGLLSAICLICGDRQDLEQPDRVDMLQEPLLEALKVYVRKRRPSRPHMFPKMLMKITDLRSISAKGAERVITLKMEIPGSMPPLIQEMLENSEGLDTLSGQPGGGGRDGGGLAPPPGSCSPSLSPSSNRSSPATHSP
Experimental: Human embryonic kidney cells (HEK293) were plated at 60,000 cells per well in a 24-well plate and maintained as described above. After 24 h, the cells were transfected with 250 ng pTK-DR5(X2)-Luc, 25 ng pCMX-human RARα, and 20 ng renilla utilizing 1.25 µL polyethylenimine (PEI) per well for 24 h. The sequence of the double DR5 RARE is: 5′-[…]-3′ (DR5 responsive elements underlined). The cells were treated with ethanol vehicle (0.1%), all-trans-retinoic acid (RA, the ligand for RAR), or the indicated rexinoid at a final concentration of 10 nM. After 24 h of treatment, the retinoid activity was measured as described above (dual luciferase assay). […] Three independent assays were conducted with triplicate samples for each treatment group. The value for RA was set to 100%. […]

[5] = tested on: Saccharomyces cerevisiae; experiment: Saccharomyces cerevisiae toxicity assay; conditions: 3 h incubation, colony count vs DMSO only control; highest concentration tested 11 µg/µL
Experimental: These compounds were also assessed for mutagenicity and toxicity in Saccharomyces cerevisiae and the toxicity results are summarized in Table 1. No compound was mutagenic in this assay.
All compounds were tested for toxicity and mutagenicity using a Saccharomyces cerevisiae based assay as described previously. Toxicity was assessed in this assay (Table 1), comparing growth on plates to control treatments. Compounds were solubilized in DMSO at increasing concentrations and cells were incubated with the compounds for 3 h before plating on selective media or YPD to assess toxicity and mutagenicity. Cytotoxicity was assessed as described. Growth of colonies on the full nutrient YPD plate for each treatment was compared to the DMSO only control. The concentration at which 50% cell death (as indicated by colony count compared to DMSO only control) +/−10% cell death is reported as the 50% killing rate. The highest concentration tested was 11 µg/µL.

| Compound | EC50 [1] [nM] | EC50 [2] [nM] | LXRE Activity (% of Bex) [3] | RARE Activity (%RA at 10 nM) [4] [%RA] | Cyto-Toxicity (50% Cell Death) [5] |
| --- | --- | --- | --- | --- | --- |
| CCN(c1ccc(C(=O)O)c(F)c1)c1ccc(OCC(C)C)c(C(C)C)c1 [Compound 29, 4-(ethyl(4-isobutoxy-3-isopropylphenyl)amino)-2-fluorobenzoic acid] | > 1000 | > 1000 | 61.7 % of Bex | 4.0 | 1 µg/µL |
| CC(C)COc1ccc(-n2nnc3cc(C(=O)O)ccc32)cc1C(C)C [Compound 31, 1-(4-isobutoxy-3-isopropylphenyl)-1H-benzo[d][1,2,3]triazole-5-carboxylic acid] | > 1000 | > 1000 | 64.5 % of Bex | 3.1 | none |
